# What was measured:
# Aβ peptide [1] = conditions: nonhuman primates; cited from earlier work
# [2] = repeated doses up to 200 mg, phase I clinical trial; cited from earlier work
# Aβ peptide [3] = conditions: sustained and dose-dependent manner; cited from earlier work
# [4] = phase I clinical trials; cited from earlier work
# BACE1 [5] = target: T1, BACE1 (Homo sapiens (Human), UniProt P56817); experiment: In vitro enzymatic BACE1 FRET assay; format: biochemical; conditions: pH 4.5, read-out: BACE1 Enzyme IC50
# Description: (§1) In Vitro Enzymatic BACE1 and BACE2 FRET (Fluorescence Resonance Energy Transfer) Assays
# (§2) The cDNAs for both human recombinant BACE1 and 2 with C-terminal 6-His Tags were cloned into transient protein expression vectors, which were subsequently transfected into mammalian cell lines. These recombinant proteins were further purified using Ni-NTA affinity chromatography (Qiagen). The assay buffer used in these screens was 0.05 M acetate, pH 4.5, 8% DMSO final, 100 μM genapol (which is a nonionic detergent, below its Critical Micelle Concentration). The β-secretase enzyme (0.02 nM for BACE1 and 0.64 nM for BACE2), which was pre-incubated for one hour with the test compound, typically in about 1 uL of DMSO according to a serial dilution, was added thereto. The assay was effectively started by the addition of FRET substrate (50 nM) and the combination was incubated for one hour. The FRET assay was terminated by the addition of tris buffer, which raised the pH to neutrality, and the fluorescence was determined. The FRET substrate was a peptide with commercially available fluorophore and quencher, on opposite sides of the BACE cleavage site. The specific FRET substrate used in this assay was made by Amgen in-house. Commercially available FRET substrates, for example, the FRET substrate offered with the BACE1 FRET Assay Kit sold by ThermoFisher Scientific (Catalog Number P2985), may be used in this assay with the appropriate modifications, which are within the purview of the ability of a person with ordinary skill in the art. Proteolytic cleavage of the FRET substrate released quenching of fluorescence (excitation 488 nm and emission 590 nm).
# Target sequence in this assay (P56817 46-501): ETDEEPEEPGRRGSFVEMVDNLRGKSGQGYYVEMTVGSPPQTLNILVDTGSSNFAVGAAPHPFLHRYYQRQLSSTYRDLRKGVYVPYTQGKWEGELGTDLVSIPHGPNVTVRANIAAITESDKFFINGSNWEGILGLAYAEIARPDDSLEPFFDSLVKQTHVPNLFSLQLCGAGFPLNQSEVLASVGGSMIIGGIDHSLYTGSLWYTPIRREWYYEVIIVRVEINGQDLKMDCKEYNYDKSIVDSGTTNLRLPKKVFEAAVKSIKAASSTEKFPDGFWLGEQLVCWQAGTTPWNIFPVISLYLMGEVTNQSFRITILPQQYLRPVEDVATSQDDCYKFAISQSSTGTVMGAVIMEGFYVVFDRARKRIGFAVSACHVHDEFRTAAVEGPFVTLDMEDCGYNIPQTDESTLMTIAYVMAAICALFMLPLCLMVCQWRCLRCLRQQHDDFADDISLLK
# BACE1 [6] = target: T1, BACE1; experiment: In vitro BACE1 cell-based assay (Aβ40 in conditioned medium, HTRF); conditions: Aβ40 in conditioned medium of cells expressing APP, 24 h
# Description: In Vitro BACE1 Cell-Based Assay
# The cell-based assay measures inhibition or reduction of Aβ40 in conditioned medium of test compound treated cells expressing amyloid precursor protein. Cells stably expressing Amyloid Precursor Protein (APP) were plated at a density of 45K cells/well in 384 well plates (Corning/BioCoat 354663). The test compounds were then added to cells in 22-point dose response concentrations with the starting concentration being 62.5 μM. The compounds were diluted from stock solutions in DMSO and the final DMSO concentration of the test compounds on cells was 0.625%. The cells were cultivated overnight at 37° C. and 5% CO2 in DMEM supplemented with 10% FBS. After 24 h of incubation with the test compounds, the conditioned media was collected and the Aβ40 levels were determined using HTRF (Homogeneous Time Resolved Fluorescence). The IC50 of the compound was calculated from the percent of control or percent inhibition of Aβ 40 as a function of the concentration of the test compound.
# The HTRF to detect Aβ40 was performed in 384 well plates (Costar 3658). The antibody pair that were used to detect Aβ 40 from cell supernatants were ConfAb40 antibody (Amgen in-house) and biotinylated 6E10 (BIOLEGEND). As an alternative to ConfAb40, a commercially available antibody, Anti-beta Amyloid 1-40 antibody [BDI350] from Abcam, Cambridge, Mass. 02139-1517 (Product code: ab20068), may be used in this assay. The concentrations were 0.35 μg/mL of ConfAb40 antibody and 1.33 μg/mL of 6E10-biotinylated antibody, as well as 4.5 μg/mL of Streptavidin Allophycocyanin Conjugate (ThermoFisher Scientific) in HTRF Buffer ([…], 1% BSA, 0.5% Tween 20).
# The conditioned media was incubated with above antibodies and Streptavidin Allophycocyanin Conjugate for 30-60 minutes at 23° C. The final readout was performed on Envision from PerkinElmer.
# Target sequence in this assay (P56817 46-501, species assumed): as the sequence (P56817 46-501) above
# human recombinant BACE2 = human recombinant BACE2 (Homo sapiens (Human), UniProt Q9Y5Z0); experiment: In vitro enzymatic BACE2 FRET assay; format: biochemical; conditions: pH 4.5, read-out: BACE2 Enzyme IC50
# human recombinant BACE2, sequence (Q9Y5Z0 63-518): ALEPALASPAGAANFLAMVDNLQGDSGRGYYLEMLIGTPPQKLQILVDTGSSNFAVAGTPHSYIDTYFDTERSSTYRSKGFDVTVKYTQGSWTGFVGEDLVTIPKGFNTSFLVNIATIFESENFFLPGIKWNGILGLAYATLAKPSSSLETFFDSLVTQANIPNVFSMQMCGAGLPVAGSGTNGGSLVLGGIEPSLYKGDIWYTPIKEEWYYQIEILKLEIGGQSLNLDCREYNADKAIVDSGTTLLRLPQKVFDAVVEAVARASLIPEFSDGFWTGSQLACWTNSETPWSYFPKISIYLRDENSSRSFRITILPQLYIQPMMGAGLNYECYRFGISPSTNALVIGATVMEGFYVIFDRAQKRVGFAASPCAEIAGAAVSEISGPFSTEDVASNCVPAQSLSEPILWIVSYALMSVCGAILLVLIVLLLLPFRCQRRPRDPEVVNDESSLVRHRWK
# Description: as §1, §2
# Recombinant CatD = Recombinant CatD (Homo sapiens (Human), UniProt P07339); experiment: In vitro enzymatic Cathepsin D (CatD) FRET assay; format: biochemical; conditions: pH 3.5, read-out: CatD Enzyme IC50
# Recombinant CatD, sequence (P07339 65-412): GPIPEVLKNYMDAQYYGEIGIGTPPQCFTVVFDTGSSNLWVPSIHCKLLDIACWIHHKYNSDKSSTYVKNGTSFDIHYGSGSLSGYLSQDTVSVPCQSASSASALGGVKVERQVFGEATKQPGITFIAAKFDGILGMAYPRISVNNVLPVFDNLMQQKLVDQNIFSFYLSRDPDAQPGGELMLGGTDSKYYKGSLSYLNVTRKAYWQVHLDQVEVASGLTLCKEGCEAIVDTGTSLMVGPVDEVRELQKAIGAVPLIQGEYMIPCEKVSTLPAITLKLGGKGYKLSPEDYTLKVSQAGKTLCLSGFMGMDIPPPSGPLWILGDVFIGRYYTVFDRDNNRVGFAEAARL
# Description: In Vitro Enzymatic Cathepsin D (CatD) FRET Assay
# Recombinant CatD was expressed in CHO cells. The assay buffer for CatD was 0.05 M citrate pH 3.5, 10% DMSO final, 5 mM CHAPS. The CatD enzyme (9 nM) was pre-incubated for one hour with inhibitors, typically in about 1 uL of DMSO according to a serial dilution, is added thereto. The assays was effectively started by the addition of different FRET substrates (20 nM for CatD) and the combination was incubated for one hour. The FRET assay was terminated with by addition of tris buffer, which raises the pH to neutrality, and the fluorescence was determined. The FRET substrate was a peptide with commercially available fluorophore and quencher, on opposite sides of the CatD cleavage site. The CatD substrate peptide sequence was based on sequence #1 of Table 1 from Gulnik et al., FEBS Lett. 413(2):379-384 (1997). Proteolytic cleavage of the FRET substrate released quenching of fluorescence (CatD excitation 500 nm and emission 580 nm).
# The in vitro CatD FRET assay data for each of the Examples is provided in Table 2, conducted by the first procedure described above. […] Thus, with this surprising selectivity profile, the compounds provided herein are believed to minimize, reduce or completely eliminate any risk of retinal atrophy and abnormal development of the eye and of the retinal pigmented epithelium as it relates to the normal function and activity of CatD.
# Aβ peptide [7] = conditions: oral dose of 95 mg once daily; cited from earlier work
# [8] = in vivo; cited from earlier work
# [9] = system: pigment epithelium of the rat's eye; conditions: higher compound dose given for three months; cited from earlier work
Compound,IC50 (BACE1 [5]) [nM],IC50 (BACE1 [6]) [nM],IC50 (human recombinant BACE2) [nM],IC50 (Recombinant CatD) [nM],further results
C[C@H]1OC[C@]2(c3cc(NC(=O)c4cnc(C(F)F)cn4)ccc3F)N=C(N)SC[C@H]12 [Example E2609],–,–,–,–,reduction in Aβ peptide levels in the CSF and plasma (Aβ peptide [1]): significant reduction; clinical safety [2]: did not show clinical significant safety concerns
CN1C(=N)N[C@](C)(c2cc(NC(=O)c3ccc(F)cn3)ccc2F)CS1(=O)=O [MK-8931],–,–,–,–,CSF Aβ peptide concentrations (Aβ peptide [3]): significantly reduced CSF Aβ peptide concentrations; safety profile [4]: excellent safety profile with no immediately noticeable side effects
"C#CCOc1cnc(/C(F)=C/c2ccc(F)c([C@@]3(C)N=C(N)OC[C@@H]3OCC(F)(F)F)c2)cn1 [Example 111, (4R,5R)-4-(2-fluoro-5-((Z)-2-fluoro-2-(5-(prop-2-yn-1-yloxy)pyrazin-2-yl)vinyl)phenyl)-4-methyl-5-(2,2,2-trifluoroethoxy)-5,6-dihydro-4H-1,3-oxazin-2-amine]",152,59,16000,664000,–
"N#Cc1ccc(/C(F)=C/c2ccc(F)c([C@@]3(C(F)F)N=C(N)O[C@@H]4C[C@@H]43)c2)nc1 [Example 102, 6-((Z)-2-(3-((1R,5S,6R)-3-amino-5-(difluoromethyl)-2-oxa-4-azabicyclo[4.1.0]hept-3-en-5-yl)-4-fluorophenyl)-1-fluorovinyl)nicotinonitrile]",152,344,1620,222000,–
C[C@@]1(c2cc(NC(=O)c3ccc(C#N)cn3)ccc2F)C=CSC(N)=N1 [JNJ-54861911],–,–,–,–,Aβ peptide reduction in CSF (Aβ peptide [7]): up to 95%; ability to cross the blood-brain barrier [8]: demonstrated an ability to cross the blood-brain barrier
"C[C@]1(c2cc(/C=C(\F)c3cnc(C#N)cn3)ccc2F)N=C(N)OC[C@@H]1OCC(F)(F)F [Example 112, 5-((Z)-2-(3-((4R,5R)-2-amino-4-methyl-5-(2,2,2-trifluoroethoxy)-5,6-dihydro-4H-1,3-oxazin-4-yl)-4-fluorophenyl)-1-fluorovinyl)pyrazine-2-carbonitrile]",119,27,6360,970000,–
C[C@@]1(c2cc(-c3cncnc3)c(F)cc2F)CCSC(N)=N1 [LY 2811376],–,–,–,–,eye toxicity finding [9]: damaged the pigment epithelium of the rat's eye

# Now from value to compound, other results behind:
IC50 (BACE1 [5]) [nM],IC50 (BACE1 [6]) [nM],IC50 (human recombinant BACE2) [nM],IC50 (Recombinant CatD) [nM],Compound,further results
341,90,1500,524000,"C[C@]1(c2cc(/C=C(\F)c3cnc(Cl)cn3)ccc2F)N=C(N)OC[C@@H]1OCC(F)(F)F [Example 110, (4R,5R)-4-(5-((Z)-2-(5-chloropyrazin-2-yl)-2-fluorovinyl)-2-fluorophenyl)-4-methyl-5-(2,2,2-trifluoroethoxy)-5,6-dihydro-4H-1,3-oxazin-2-amine]",–
283,4660,5840,119000,"C#CCOc1cnc(/C(F)=C/c2ccc(F)c([C@@]3(C)N=C(N)OCC3(F)F)c2)cn1 [Example 115, (R,Z)-5,5-difluoro-4-(2-fluoro-5-(2-fluoro-2-(5-(prop-2-yn-1-yloxy)pyrazin-2-yl)vinyl)phenyl)-4-methyl-5,6-dihydro-4H-1,3-oxazin-2-amine]",–
118,663,33,39300,"C[C@@]1(c2cc(/C=C(\F)c3cnc(Cl)cn3)ccc2F)CO[C@@](C)(C(F)(F)F)C(N)=N1 [Example 108, (2R,5R)-5-(5-((Z)-2-(5-chloropyrazin-2-yl)-2-fluorovinyl)-2-fluorophenyl)-2,5-dimethyl-2-(trifluoromethyl)-5,6-dihydro-2H-1,4-oxazin-3-amine]",–
50,112,375,82500,"C#CCOc1cnc(/C(F)=C/c2ccc(F)c([C@]3(C)CO[C@@](C)(C(F)(F)F)C(N)=N3)c2)cn1 [Example 107, (2R,5R)-5-(2-fluoro-5-((Z)-2-fluoro-2-(5-(prop-2-yn-1-yloxy)pyrazin-2-yl)vinyl)phenyl)-2,5-dimethyl-2-(trifluoromethyl)-5,6-dihydro-2H-1,4-oxazin-3-amine]",–
149,90,853,121000,"C[C@@]1(c2nc(/C=C(\F)c3ccc(C#N)cn3)ccc2F)CO[C@@](C)(C(F)(F)F)C(N)=N1 [Example 117, 6-((Z)-2-(6-((3R,6R)-5-amino-3,6-dimethyl-6-(trifluoromethyl)-3,6-dihydro-2H-1,4-oxazin-3-yl)-5-fluoropyridin-2-yl)-1-fluorovinyl)nicotinonitrile]",–
256,2660,2730,> 400000,"C[C@]1(c2cc(/C=C(\F)c3ccc(C#N)cn3)ccc2F)N=C(N)OCC1(F)F [Example 114, (R,Z)-6-(2-(3-(2-amino-5,5-difluoro-4-methyl-5,6-dihydro-4H-1,3-oxazin-4-yl)-4-fluorophenyl)-1-fluorovinyl)nicotinonitrile]",–
